# Molecular target: human MGL from HeLa cells (Homo sapiens (Human), UniProt Q99685)
# Experiment: MGL in vitro activity assay: cleavage of [glycerol-1,3-3H]-oleyl glycerol, activated carbon filtration
# Assay type: biochemical
# Details: 300 nM [Glycerol-1,3-3H]-oleyl glycerol, endogenously expressed MGL from HeLa cells, one hour incubation
# Protocol: The assay used to measure the in vitro activity of MGL is adapted from the assay used for another serine hydrolase (FAAH) described in Wilson et al., 2003 (A high-throughput-compatible assay for determining the activity of fatty acid amide hydrolase. Wilson S J, Lovenberg T W, Barbier A J. Anal Biochem. 2003 Jul. 15; 318(2):270-5.). The assay consists of combining endogenously expressed MGL from HeLa cells with test compounds, adding [glycerol-1,3-^3H]-oleyl glycerol, incubating for one hour, and then measuring the amount of cleaved [1,3-^3H]-glycerol that passes through an activated carbon filter. The amount of cleaved, tritiated glycerol passing through the carbon filter is proportional to the activity of the MGL enzyme in a particular well/test condition.
# Standard conditions for this assay combine 300 nM [Glycerol-1,3-^3H]-oleyl glycerol with human MGL from HeLa cells and test compounds for one hour, after which the reaction is filtered through activated carbon and tritium is measured in the flow through. The test compound concentration in screening mode is 10 μM, while the highest compound concentration in IC50 assays is determined empirically. MGL is the predominant hydrolase in HeLa cells/cell homogenates.
# Sequence of human MGL from HeLa cells (Q99685 whole entry): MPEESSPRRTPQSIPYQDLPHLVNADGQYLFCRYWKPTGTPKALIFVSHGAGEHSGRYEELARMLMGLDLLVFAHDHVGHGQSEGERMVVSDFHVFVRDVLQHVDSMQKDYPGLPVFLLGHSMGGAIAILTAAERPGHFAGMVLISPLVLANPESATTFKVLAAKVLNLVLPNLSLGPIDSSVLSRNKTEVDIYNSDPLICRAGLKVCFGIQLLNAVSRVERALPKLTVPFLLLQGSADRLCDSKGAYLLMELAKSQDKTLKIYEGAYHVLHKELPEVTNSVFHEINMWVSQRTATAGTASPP
row,SMILES,IC50
1,"Cc1ccc(C(=O)N2[C@@H]3CCC[C@H]2c2nn(C)c(-c4cc(C)nn4C)c2C3)c(F)c1 (stereo in doubt) [Example 72, ((5R,9S)-3-(1,3-Dimethyl-1H-pyrazol-5-yl)-2-methyl-4,5,6,7,8,9-hexahydro-2H-5,9-epiminocycloocta[c]pyrazol-10-yl)(2-fluoro-4-methylphenyl)methanone]",1.13 µM
2,"COc1cccc(C(=O)N2[C@@H]3CCC[C@H]2c2nn(C)c(-c4cc(C)nn4C)c2C3)c1C (stereo in doubt) [Example 73, ((5R,9S)-3-(1,3-Dimethyl-1H-pyrazol-5-yl)-2-methyl-4,5,6,7,8,9-hexahydro-2H-5,9-epiminocycloocta[c]pyrazol-10-yl)(3-methoxy-2-methylphenyl)methanone]",0.23 µM
3,"COc1cccc(C(=O)N2[C@@H]3CCC[C@H]2c2nn(C)c(-c4cc(C(F)(F)F)nn4C)c2C3)c1C (stereo in doubt) [Example 74, (3-Methoxy-2-methylphenyl)((5R,9S)-2-methyl-3-(1-methyl-3-(trifluoromethyl)-1H-pyrazol-5-yl)-4,5,6,7,8,9-hexahydro-2H-5,9-epiminocycloocta[c]pyrazol-10-yl)methanone]",0.019 µM
4,"Cn1nc(C(F)(F)F)cc1-c1c2c(nn1C)[C@@H]1CCC[C@H](C2)N1C(=O)c1ccc2c(c1)OCCC2 (stereo in doubt) [Example 75, Chroman-7-yl((5R,9S)-2-methyl-3-(1-methyl-3-(trifluoromethyl)-1H-pyrazol-5-yl)-4,5,6,7,8,9-hexahydro-2H-5,9-epiminocycloocta[c]pyrazol-10-yl)methanone]",0.044 µM
5,"Cc1cccc(C(=O)N2[C@@H]3CCC[C@H]2c2nn(C)c(-c4cc(C(F)(F)F)nn4C)c2C3)c1 (stereo in doubt) [Example 76, ((5R,9S)-2-Methyl-3-(1-methyl-3-(trifluoromethyl)-1H-pyrazol-5-yl)-4,5,6,7,8,9-hexahydro-2H-5,9-epiminocycloocta[c]pyrazol-10-yl)(m-tolyl)methanone]",0.068 µM
6,"COc1cc(C)cc(C(=O)N2[C@@H]3CCC[C@H]2c2nn(C)c(-c4cc(C(F)(F)F)nn4C)c2C3)c1 (stereo in doubt) [Example 77, (3-Methoxy-5-methylphenyl)((5R,9S)-2-methyl-3-(1-methyl-3-(trifluoromethyl)-1H-pyrazol-5-yl)-4,5,6,7,8,9-hexahydro-2H-5,9-epiminocycloocta[c]pyrazol-10-yl)methanone]",0.026 µM
7,"Cc1ccc2c(C(=O)N3CCc4c(nn(C)c4-c4cc(C(F)(F)F)nn4C)[C@@H]3C)cccc2n1 [Example 1, (S)-(2,7-Dimethyl-3-(1-methyl-3-(trifluoromethyl)-1H-pyrazol-5-yl)-2,4,5,7-tetrahydro-6H-pyrazolo[3,4-c]pyridin-6-yl)(2-methylquinolin-5-yl)methanone]",0.035 µM
8,"COc1cccc(C(=O)N2CCc3c(nn(C)c3-c3c(C)cnn3C)[C@@H]2C)c1C [Example 2, (S)-(3-(1,4-Dimethyl-1H-pyrazol-5-yl)-2,7-dimethyl-2,4,5,7-tetrahydro-6H-pyrazolo[3,4-c]pyridin-6-yl)(3-methoxy-2-methylphenyl)methanone]",10 µM
9,"COc1cccc(C(=O)N2CCc3c(nn(C)c3-c3c(C(F)(F)F)nn(C)c3C)[C@@H]2C)c1C [Example 3, (S)-(3-(1,5-Dimethyl-3-(trifluoromethyl)-1H-pyrazol-4-yl)-2,7-dimethyl-2,4,5,7-tetrahydro-6H-pyrazolo[3,4-c]pyridin-6-yl)(3-methoxy-2-methylphenyl)methanone]",6.7 µM
10,"C[C@H]1c2nn(C)c(-c3cc(C(F)(F)F)nn3C)c2CCN1C(=O)c1cccc(N2CC3(COC3)C2)c1Cl [Example 4, (S)-(2-Chloro-3-(2-oxa-6-azaspiro[3.3]heptan-6-yl)phenyl)(2,7-dimethyl-3-(1-methyl-3-(trifluoromethyl)-1H-pyrazol-5-yl)-2,4,5,7-tetrahydro-6H-pyrazolo[3,4-c]pyridin-6-yl)methanone]",0.02 µM

# From patent publication US11891387B2, “Monoacylglycerol lipase modulators” (Janssen Pharmaceutica NV, priority 2020, dated 2024)
